Measurements taken from US20240092758A1, “IMIDAZOLO INDAZOLE COMPOUNDS AS JAK INHIBITORS” (Theravance Biopharma R&D IP, LLC, priority 2021, published 2024).

How the values were obtained:
JAK1 = JAK1 (Homo sapiens (Human), UniProt P23458); experiment: Biochemical JAK kinase assay (LanthaScreen), JAK1; details: for Ki: read-out: JAK1 pKi (converted)
Method in brief: (§1)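 LanthaScreen format: phospho-STAT1 (pTyr701) detected with 2 nM Tb antibody after 10 mM EDTA quench. Kinase step used Km-level ATP and 200 nM STAT1 peptide, 1 h at ambient after 1 h pre-incubation. Inhibition fitted to IC50, reported as pKi.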

[1] = test system: IL-13 induced STAT6 phosphorylation in BEAS-2B human lung epithelial cells; experiment: Cellular JAKI potency assay (BEAS-2B); type: cell-based; details: Homo sapiens, BEAS-2B, BEAS-2B cells, read-out: BEAS2B pIC50 (converted)
Method in brief: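 BEAS-2B cells were preincubated with compound (0.1% DMSO) in HBSS/HEPES/BSA for 1 h at 37 °C, then stimulated with IL-13 (80 ng/mL before addition) for 30 min. After lysis, pSTAT6 (Tyr641) was quantified by AlphaLISA SureFire; IC50 from a 4-parameter fit of percent inhibition, reported as pIC50.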

JAK2 = JAK2 (Homo sapiens (Human), UniProt O60674); experiment: Biochemical JAK kinase assay (LanthaScreen), JAK2; details: for Ki: read-out: JAK2 pKi (converted)
Method in brief: as §1

Sequence of JAK1 (P23458 whole entry): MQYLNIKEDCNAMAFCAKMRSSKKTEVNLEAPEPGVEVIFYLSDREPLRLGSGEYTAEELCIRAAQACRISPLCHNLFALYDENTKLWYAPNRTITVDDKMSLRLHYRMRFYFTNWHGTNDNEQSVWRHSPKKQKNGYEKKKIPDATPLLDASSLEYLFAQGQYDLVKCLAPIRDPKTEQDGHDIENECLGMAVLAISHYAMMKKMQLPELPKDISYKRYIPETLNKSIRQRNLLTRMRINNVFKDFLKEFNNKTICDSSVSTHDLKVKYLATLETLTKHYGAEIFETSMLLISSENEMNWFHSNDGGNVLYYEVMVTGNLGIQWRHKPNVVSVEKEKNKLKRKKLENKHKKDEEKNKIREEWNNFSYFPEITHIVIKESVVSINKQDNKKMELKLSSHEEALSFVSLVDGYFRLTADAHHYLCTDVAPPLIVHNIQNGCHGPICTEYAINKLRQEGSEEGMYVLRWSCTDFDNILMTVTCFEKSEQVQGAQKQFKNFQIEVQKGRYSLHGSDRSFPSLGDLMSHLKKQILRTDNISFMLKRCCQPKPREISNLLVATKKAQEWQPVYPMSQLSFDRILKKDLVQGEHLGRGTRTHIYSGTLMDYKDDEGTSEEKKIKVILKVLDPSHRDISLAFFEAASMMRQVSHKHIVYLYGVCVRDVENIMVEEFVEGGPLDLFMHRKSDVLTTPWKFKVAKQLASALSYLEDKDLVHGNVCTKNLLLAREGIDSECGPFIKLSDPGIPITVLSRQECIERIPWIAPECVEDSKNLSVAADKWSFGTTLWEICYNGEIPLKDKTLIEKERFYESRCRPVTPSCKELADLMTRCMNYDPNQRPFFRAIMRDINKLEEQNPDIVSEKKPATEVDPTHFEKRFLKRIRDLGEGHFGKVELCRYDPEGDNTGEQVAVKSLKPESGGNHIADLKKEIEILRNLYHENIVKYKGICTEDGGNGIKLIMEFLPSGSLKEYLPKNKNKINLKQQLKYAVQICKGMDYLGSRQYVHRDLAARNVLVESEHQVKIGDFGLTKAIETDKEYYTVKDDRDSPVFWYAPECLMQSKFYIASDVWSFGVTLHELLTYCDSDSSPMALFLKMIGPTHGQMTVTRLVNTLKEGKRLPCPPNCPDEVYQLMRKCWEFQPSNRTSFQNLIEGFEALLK
Sequence of JAK2 (O60674 whole entry): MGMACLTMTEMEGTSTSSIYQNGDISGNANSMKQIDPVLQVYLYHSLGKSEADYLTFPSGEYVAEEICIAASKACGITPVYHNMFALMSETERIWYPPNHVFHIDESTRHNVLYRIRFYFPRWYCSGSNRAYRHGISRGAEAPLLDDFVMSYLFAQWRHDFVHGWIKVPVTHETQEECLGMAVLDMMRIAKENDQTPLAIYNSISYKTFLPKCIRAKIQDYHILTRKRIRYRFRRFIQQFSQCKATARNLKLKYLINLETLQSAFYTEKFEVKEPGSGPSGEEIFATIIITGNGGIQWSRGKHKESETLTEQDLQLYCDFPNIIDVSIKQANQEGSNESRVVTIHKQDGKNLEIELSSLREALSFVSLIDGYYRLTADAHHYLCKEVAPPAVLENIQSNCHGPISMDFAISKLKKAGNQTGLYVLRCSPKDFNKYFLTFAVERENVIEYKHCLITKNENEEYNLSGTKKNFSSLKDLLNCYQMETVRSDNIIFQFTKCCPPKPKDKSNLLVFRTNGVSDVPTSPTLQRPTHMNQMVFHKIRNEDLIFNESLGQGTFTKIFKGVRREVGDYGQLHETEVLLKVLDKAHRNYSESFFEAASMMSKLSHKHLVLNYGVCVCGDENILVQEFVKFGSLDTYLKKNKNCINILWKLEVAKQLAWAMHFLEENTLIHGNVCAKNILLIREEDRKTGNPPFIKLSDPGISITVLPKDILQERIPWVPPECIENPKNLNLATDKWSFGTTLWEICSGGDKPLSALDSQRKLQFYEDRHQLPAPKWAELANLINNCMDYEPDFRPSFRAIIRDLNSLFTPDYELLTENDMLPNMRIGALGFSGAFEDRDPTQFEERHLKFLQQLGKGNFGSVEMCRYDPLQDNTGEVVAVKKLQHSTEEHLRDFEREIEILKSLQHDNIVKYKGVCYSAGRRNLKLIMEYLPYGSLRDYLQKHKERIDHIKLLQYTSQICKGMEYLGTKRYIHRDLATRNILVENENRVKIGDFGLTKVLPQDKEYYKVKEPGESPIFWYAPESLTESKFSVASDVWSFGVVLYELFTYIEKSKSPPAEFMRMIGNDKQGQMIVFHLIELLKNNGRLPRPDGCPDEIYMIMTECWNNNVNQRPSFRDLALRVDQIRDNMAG

SMILES	Ki (JAK1) [nM]	IC50 [1] [nM]	Ki (JAK2) [nM]	JAK2 pKi (JAK2)	JAK1 pKi (JAK1)
Oc1ccc(-c2ccc3c(-c4nc(C5=CCNC5)c[nH]4)n[nH]c3c2F)c(CC(F)(F)F)c1 [Example 357]	0.1 to 1	31.6 to 100	0.1 to 1		
CCc1cc(O)ccc1-c1ccc2c(-c3nc(C4=CCN(C(=O)OC)C4)c[nH]3)n[nH]c2c1 [Example 168]	0.1 to 1	10 to 31.6	0.1 to 1		
CCc1cc(O)ccc1-c1ccc2c(-c3nc(C4=CCN(CCC5(O)CC5)C4)c[nH]3)n[nH]c2c1F [Example 320]	0.1 to 1	10 to 31.6		A (A represents a pKi value ≥10 (Ki≤0.1 nM))	
CCc1cc(O)ccc1-c1ccc2c(-c3nc(C4=CCN(C5CCNC5=O)CC4)c[nH]3)n[nH]c2c1F (stereo not drawn) [Example 84]	0.1 to 1	31.6 to 100	0.1 to 1		
CCc1cc(O)ccc1-c1ccc2c(-c3nc(C4=CCCN(CC(=O)NC)C4)c[nH]3)n[nH]c2c1 [Example 88]	0.1 to 1	10 to 31.6		A (A represents a pKi value ≥10 (Ki≤0.1 nM))	
CCc1cc(O)ccc1-c1ccc2c(-c3nc(C4=CCN(CCS(=O)(=O)NC)CC4)c[nH]3)n[nH]c2c1F [Example 85]	0.1 to 1	31.6 to 100	0.1 to 1		
CCc1cc(O)ccc1-c1ccc2c(-c3nc(C4=CCN(Cc5ccccc5)CC4)c[nH]3)n[nH]c2c1 [Example 130]	0.1 to 1	31.6 to 100	1 to 10		
CCc1cc(O)ccc1-c1ccc2c(-c3nc(C4=CCCN(C(C)=O)C4)c[nH]3)n[nH]c2c1 [Example 159]	0.1 to 1	10 to 31.6	0.1 to 1		
CCc1cc(O)ccc1-c1ccc2c(-c3nc(C4=CCN(CC(=O)NC)C4)c[nH]3)n[nH]c2c1F [Example 97]	0.1 to 1	3.16 to 10		A (A represents a pKi value ≥10 (Ki≤0.1 nM))	
CCc1cc(O)ccc1-c1ccc2c(-c3nc(C4=CCN(CCNC(=O)C(C)C)CC4)c[nH]3)n[nH]c2c1 [Example 102]		3.16 to 10		A (A represents a pKi value ≥10 (Ki≤0.1 nM))	A (A represents a pKi value ≥10 (Ki≤0.1 nM))
CCc1cc(O)ccc1-c1ccc2c(-c3nc(C4=C[C@H](CC#N)NC4)c[nH]3)n[nH]c2c1F [Example 247]	0.1 to 1	10 to 31.6	0.1 to 1		
CCc1cc(O)ccc1-c1ccc2c(-c3nc(C4=CC[C@H](C)N(CCNS(C)(=O)=O)C4)c[nH]3)n[nH]c2c1F [Example 278]	0.1 to 1	10 to 31.6	0.1 to 1		
CCc1cc(O)ccc1-c1ccc2c(-c3nc(C4=CCN(C(C)=O)C4)c[nH]3)n[nH]c2c1 [Example 166]		3.16 to 10		A (A represents a pKi value ≥10 (Ki≤0.1 nM))	A (A represents a pKi value ≥10 (Ki≤0.1 nM))
CCc1cc(O)ccc1-c1ccc2c(-c3nc(C4=CCCN(C5CC(O)C5)C4)c[nH]3)n[nH]c2c1F (stereo not drawn) [Compound 10, 3-ethyl-4-(7-fluoro-3-(4-(1-(3-hydroxycyclobutyl)-1,2,5,6-tetrahydropyridin-3-yl)-1H-imidazol-2-yl)-1H-indazol-6-yl)phenol]	0.1 to 1	10 to 31.6	0.1 to 1		
CCc1cc(O)ccc1-c1ccc2c(-c3nc(C4=CCN(C[C@H](C)CO)C4)c[nH]3)n[nH]c2c1F [Example 332]	0.1 to 1	10 to 31.6	0.1 to 1		
CCc1cc(O)ccc1-c1ccc2c(-c3nc(C4=CCN[C@@H](C)C4)c[nH]3)n[nH]c2c1F [Example 311]	0.1 to 1	10 to 31.6	0.1 to 1		
CCc1cc(O)ccc1-c1ccc2c(-c3nc(C4=CC[C@H](C)N(CCCO)C4)c[nH]3)n[nH]c2c1F [Example 258]	0.1 to 1	10 to 31.6	0.1 to 1		
CCc1cc(O)ccc1-c1ccc2c(-c3nc(C4=C[C@H]([C@H](C)O)NC4)c[nH]3)n[nH]c2c1F [Example 310]	0.1 to 1	10 to 31.6		A (A represents a pKi value ≥10 (Ki≤0.1 nM))	
CCc1cc(O)ccc1-c1ccc2c(-c3nc(C4=CCN(C[C@@H](C)CO)C4)c[nH]3)n[nH]c2c1F [Example 318]	0.1 to 1	10 to 31.6	0.1 to 1		
CCc1cc(O)ccc1-c1ccc2c(-c3nc(C4=CC[C@H](C)N(CCN5CCOCC5)C4)c[nH]3)n[nH]c2c1F [Example 270]	0.1 to 1	10 to 31.6	0.1 to 1		
CCOC(=O)C1=C(c2c[nH]c(-c3n[nH]c4cc(-c5ccc(O)cc5CC)ccc34)n2)CNCC1 [Example 302]		10 to 31.6	0.1 to 1		A (A represents a pKi value ≥10 (Ki≤0.1 nM))
